Legend:
[1] = test system: Caco-2 cells; assay: Caco-2 cell monolayer permeability; type: in vitro ADME, human
Protocol: (§1) The MultiScreen Caco-2 (ATCC cat. # HTB-37) test system (Millipore, St. Charles, MO, USA) was used to study the transport through a cell monolayer, according to the manufacturer’s instructions. Briefly, a study of transport from the apical membrane to the basolateral (A-B) area and in the opposite direction (B-A) was carried out on a 21-day culture of Caco-2 at a 1 µM concentration of the tested compound for 2 h. Monolayer integrity was verified by measuring electrical resistance (TEER) using a Millicell-ERS instrument. A TEER value of at least 3 KOhm/well was determined to be acceptable.

[2] = Caco-2 cell monolayer permeability; type: in vitro ADME, human; settings: human, Caco-2; read-out: Asymmetry index
Protocol: as §1

[3] = Single-dose acute toxicity, intragastric administration; type: in vivo, rat; settings: both sexes, Wistar, rat, in vivo, po; rats, intragastric, single dose; read-out: maximum tolerated dose
Protocol: Before administration, the BX-SI043 substance was resuspended in a 1% starch solution. The animals in the treatment groups received suspensions intragastrically in doses of 2000 mg/kg (administered in two equal doses, with a 30–40 min interval), 1000 mg/kg, 600 mg/kg, and 300 mg/kg (administered in single doses).
The animals were monitored daily for any abnormalities. On the 2nd, 7th, and 13th days after administration, the animals were clinically evaluated and weighed, and the consumption of feed and water were measured. On the 14th day, the behavior of the animals was evaluated. On the 15th day, the animals were euthanized, and the lungs (with trachea), heart, thymus, liver, kidneys, spleen, stomach, small intestine, colon, brain, adrenal glands, and testes/ovaries were fixed in 10% neutral formalin for histological evaluation.

In the case of CCOC(=O)c1[nH]c2cc(F)ccc2c1/N=N/N1CCCC1 [BX-SI043, Ethyl (E)-6-fluoro-3-(pyrrolidin-1-yldiazenyl)-1H-indole-2-carboxylate], the “Papp A-B” value ([1]; Caco-2, 1 µM, 2 h) is reported as 0.51 10^-6 sm/s, the “Papp B-A” value ([1]; Caco-2, 1 µM, 2 h) is reported as 0.19 10^-6 sm/s and the Mass balance ([1]; Caco-2, first value: A-B / apical) is reported as 49%. For the same compound, the Mass balance ([1]; Caco-2, first value: A-B / apical, listed as ВХ-SI043) was 49%, the Mass balance ([1]; Caco-2, second value: B-A / basolateral) was 25.1% and the efflux ratio at 2 h, 1 µM [2] was 0.37. It also gave an MTD at 14 days [3] of 600 mg/kg.

— paper PMC11899342, “Novel Triazeneindole Antibiotics: Synthesis and Hit-to-Lead Optimization” (International Journal of Molecular Sciences, 2025)
